# How the values were obtained:
# Type in all cases: physicochemical
# [1] = Storage stability at 25° C./60% relative humidity; conditions: 25° C./60% RH
# Description: Samples of Form II renzapride hydrochloride hydrate were placed in storage under conditions of 25° C./60% relative humidity.
# [2] = Intrinsic dissolution rate (IDR) of compressed discs in a static dissolution system
# Description: The samples were prepared as discs. Each disc was prepared by compressing the sample for 5 minutes at 2 tons of pressure. Each disc was transferred to a static dissolution system, whereby one surface of the disc is exposed to the dissolution medium. Six discs were prepared from each batch of material for duplicate intrinsic dissolution rate (IDR) determinations at pHs 2.2, 4.0 and 7.0. Dissolution samples (0.8 ml) were withdrawn at 5 minute intervals up to 60 minutes and samples were analysed. The amount of drug released (mg) is divided by the surface area of the disc (0.5 cm^2) to obtain an amount per unit area (mg cm^−2). The average of the duplicate determinations is plotted as a function of time (minutes). The IDR (mg cm^−2 minutes^−1) is given by the gradient (determined by linear regression) over the linear range of the release profile. When the dissolution into solution is deemed independent of pH, a pH independent IDR is calculated. The pH independent IDR is calculated by averaging the data for each time point at all of the pHs studied and calculating the linear regression on at least the first 5 data points. All IDR values are reported with the error encompassing the upper and lower 95% confidence limits of the linear regression. Linear regression analysis of the IDR data used all of the data points, as the release profiles are linear.
# [3] = Particle size distribution; conditions: 5 kg batch
# Description: The Particle Size Distribution (PDS) of renzapride is measured according to the method detailed below. [table] • Vibration feed rate: 40% • Air pressure: 3.5 Bar Single measurement of each batch performed in triplicate.
# [4] = Dynamic vapour sorption (DVS), adsorption/desorption cycles between 0 and 90% RH
# Source text: Each sample was placed into a sample pan and loaded into the DVS system. An initial weight reading was taken. The sample was then exposed to an atmosphere with a relative humidity (RH) of 0% to dry the sample and a dry weight reading taken. The sample was exposed to an adsorption/desorption cycle between 0 and 90% RH in 10% RH intervals. The change in weight data was fitted to an exponential expression that was used to automatically determine the end point of each stage, which then triggers the next increase/decrease in relative humidity. For the DVS traces, the stepped lines represent the relative humidity (RH) level in the Chamber. The curved line represents the weight change in the sample. The RH was controlled automatically and changes once the rate of change in weight of the sample is small.
smiles,measurement,setting,value
"COc1cc(N)c(Cl)cc1C(=O)NC1CCN2CCCC1C2.Cl (centres unmarked) [Form II, renzapride hydrochloride hydrate]",Description,[1]; t = 0 months,White
same,Water content (by Karl Fisher),[1]; t = 0 months,8.9%(w/w)
same,Description,[1]; t = 6 months,White
same,Water content (by Karl Fisher),[1]; t = 6 months,8.6%(w/w)
same,Description,[1]; t = 12 months,White
same,Water content (by Karl Fisher),[1]; t = 12 months,8.8%(w/w)
same,Description,[1]; t = 18 months,White
same,Water content (by Karl Fisher),[1]; t = 18 months,8.8%(w/w)
same,Description,[1]; t = 24 months,White
same,Water content (by Karl Fisher),[1]; t = 24 months,8.8%(w/w)
same,IDR independent (pH independent IDR),"[2]; data averaged over all pHs studied, error = 95% confidence limits",5.7 ± 0.3 mg/min/cm^2
same,IDR pH 2.2,"[2]; pH 2.2, error = 95% confidence limits of linear regression",5.5 ± 0.2 mg/min/cm^2
same,IDR pH 4.0,"[2]; pH 4.0, error = 95% confidence limits of linear regression",5.7 ± 0.2 mg/min/cm^2
same,IDR pH 7.0,"[2]; pH 7.0, error = 95% confidence limits of linear regression",5.9 ± 0.3 mg/min/cm^2
same,Span = (d(0.9) − d(0.1))/d(0.5),[3],2.1
same,d (0.1),[3],11.5 μm
same,d(0.5),[3],47.1 μm
same,d(0.9),[3],109.0 μm
same,moisture taken up at 90% RH (DVS),[4]; chamber at 90% RH,~9.5 % (w/w)
same,uptake in moisture at 10% RH (DVS),"[4]; exposure to 10% RH, initial uptake",ca. 9 % (w/w)

# Source: patent US20050209271A1, “Form of renzapride hydrochloride hydrate and uses thereof” (priority 2003, published 2005)
